Measured values published in the NIST ThermoML archive (doi:10.1021/je049655w).
Where “and” joins values, the source holds several entries; their conditions need not be identical. Identical values can stand only once.

Assays:
[1] = xn = mol fraction of the nth substance listed; details: 100.8 kPa, Liquid
[2] = 100.8 kPa, Liquid
[3] = refractive index (Na D-line) (dimensionless); details: 298.15 K; 101.33 kPa; Liquid; Standard Abbe refractometry

CC(C)CC(C)(C)C [2,2,4-trimethylpentane] + CCO
[1]
Details | mass density, 298.15 K [kg/m3] | mass density, 308.15 K [kg/m3] | mass density, 318.15 K [kg/m3] | viscosity, 298.15 K [mPa·s] | viscosity, 308.15 K [mPa·s] | viscosity, 318.15 K [mPa·s]
x2 = 0 | 687.8 | 679.5 | 671 | 0.474 | 0.422 | 0.382
x2 = 0.05 | 688.8 | 680.4 | 671.7 | 0.476 | 0.424 | 0.384
x2 = 0.1 | 690.3 | 681.8 | 673 | 0.478 | 0.426 | 0.385
x2 = 0.15 | 692.1 | 683.5 | 674.7 | 0.48 | 0.429 | 0.389
x2 = 0.2 | 694 | 685.4 | 676.5 | 0.484 | 0.433 | 0.391
x2 = 0.25 | 696.2 | 687.5 | 678.6 | 0.494 | 0.439 | 0.397
x2 = 0.3 | 698.5 | 689.8 | 680.9 | 0.507 | 0.45 | 0.404
x2 = 0.35 | 701.1 | 692.4 | 683.4 | 0.521 | 0.462 | 0.412
x2 = 0.4 | 704 | 695.2 | 686.2 | 0.54 | 0.474 | 0.422
x2 = 0.45 | 707.1 | 698.3 | 689.3 | 0.561 | 0.487 | 0.433
x2 = 0.5 | 710.6 | 701.8 | 692.8 | 0.586 | 0.506 | 0.446
x2 = 0.55 | 714.5 | 705.7 | 696.6 | 0.613 | 0.527 | 0.463
x2 = 0.6 | 718.8 | 710 | 700.9 | 0.643 | 0.55 | 0.48
x2 = 0.65 | 723.6 | 714.9 | 705.8 | 0.678 | 0.576 | 0.5
x2 = 0.7 | 729.1 | 720.3 | 711.3 | 0.718 | 0.606 | 0.524
x2 = 0.75 | 735.4 | 726.6 | 717.6 | 0.76 | 0.641 | 0.55
x2 = 0.8 | 742.3 | 733.6 | 724.7 | 0.806 | 0.677 | 0.58
x2 = 0.85 | 750.5 | 741.7 | 732.9 | 0.861 | 0.72 | 0.616
x2 = 0.9 | 760.1 | 751.4 | 742.5 | 0.929 | 0.768 | 0.657
x2 = 0.95 | 771.5 | 762.8 | 753.9 | 0.999 | 0.829 | 0.702

CCC(C)=O [butanone]
[2]
Details | mass density [kg/m3] | viscosity [mPa·s]
298.15 K | 799.7 | 0.378
308.15 K | 789.2 | 0.341
318.15 K | 778.4 | 0.307

Details | refractive index
[3] | 1.37623

CC(C)CC(C)(C)C [2,2,4-trimethylpentane]
[2]
Details | mass density [kg/m3] | viscosity
298.15 K | 687.8 | 0.474 mPa·s
308.15 K | 679.5 | 0.422 mPa·s and 0.426 mPa·s
318.15 K | 671 | 0.382 mPa·s

Details | refractive index
[3] | 1.38902

CCC(C)=O [butanone] + CCO
[1]
Details | mass density, 298.15 K [kg/m3] | mass density, 308.15 K [kg/m3] | mass density, 318.15 K [kg/m3] | viscosity, 298.15 K [mPa·s] | viscosity, 308.15 K [mPa·s] | viscosity, 318.15 K [mPa·s]
x2 = 0 | 799.7 | 789.2 | 778.4 | 0.378 | 0.341 | 0.307
x2 = 0.05 | 799.3 | 788.8 | 778 | 0.38 | 0.345 | 0.313
x2 = 0.1 | 798.9 | 788.3 | 777.6 | 0.386 | 0.349 | 0.316
x2 = 0.15 | 798.4 | 787.9 | 777.2 | 0.393 | 0.353 | 0.32
x2 = 0.2 | 797.9 | 787.4 | 776.8 | 0.4 | 0.359 | 0.324
x2 = 0.25 | 797.4 | 787 | 776.4 | 0.409 | 0.366 | 0.33
x2 = 0.3 | 796.9 | 786.5 | 776 | 0.42 | 0.376 | 0.337
x2 = 0.35 | 796.4 | 786.1 | 775.6 | 0.431 | 0.387 | 0.345
x2 = 0.4 | 795.8 | 785.6 | 775.2 | 0.446 | 0.397 | 0.355
x2 = 0.45 | 795.2 | 785.1 | 774.7 | 0.469 | 0.412 | 0.365
x2 = 0.5 | 794.6 | 784.6 | 774.3 | 0.49 | 0.426 | 0.381
x2 = 0.55 | 794 | 784 | 773.8 | 0.512 | 0.443 | 0.398
x2 = 0.6 | 793.3 | 783.4 | 773.3 | 0.539 | 0.467 | 0.412
x2 = 0.65 | 792.6 | 782.8 | 772.8 | 0.576 | 0.493 | 0.434
x2 = 0.7 | 791.8 | 782.1 | 772.2 | 0.618 | 0.526 | 0.456
x2 = 0.75 | 790.9 | 781.4 | 771.6 | 0.673 | 0.56 | 0.482
x2 = 0.8 | 790 | 780.6 | 771 | 0.734 | 0.601 | 0.519
x2 = 0.85 | 788.9 | 779.7 | 770.3 | 0.799 | 0.654 | 0.56
x2 = 0.9 | 787.8 | 778.7 | 769.5 | 0.869 | 0.722 | 0.613
x2 = 0.95 | 786.6 | 777.7 | 768.6 | 0.961 | 0.803 | 0.676

CCO [ethanol] + CC(C)CC(C)(C)C
[1], x1 = 1
Details | mass density [kg/m3] | viscosity [mPa·s]
298.15 K | 785.1 | 1.088
308.15 K | 776.5 | 0.904
318.15 K | 767.7 | 0.763

CCC(C)=O [butanone] + CC(C)CC(C)(C)C
[1]
Details | mass density, 298.15 K [kg/m3] | mass density, 308.15 K [kg/m3] | mass density, 318.15 K [kg/m3] | viscosity, 298.15 K [mPa·s] | viscosity, 308.15 K [mPa·s] | viscosity, 318.15 K [mPa·s]
x1 = 0.05 | 690.1 | 681.7 | 673.1 | 0.461 | 0.416 | 0.374
x1 = 0.1 | 692.7 | 684.2 | 675.4 | 0.451 | 0.408 | 0.367
x1 = 0.15 | 695.6 | 687 | 678.2 | 0.443 | 0.4 | 0.36
x1 = 0.2 | 698.7 | 690.1 | 681.1 | 0.436 | 0.394 | 0.354
x1 = 0.25 | 702.2 | 693.4 | 684.3 | 0.429 | 0.388 | 0.349
x1 = 0.3 | 705.9 | 697 | 687.8 | 0.423 | 0.382 | 0.344
x1 = 0.35 | 709.9 | 700.9 | 691.6 | 0.417 | 0.377 | 0.339
x1 = 0.4 | 714.1 | 705.1 | 695.7 | 0.412 | 0.372 | 0.335
x1 = 0.45 | 718.7 | 709.5 | 700.1 | 0.407 | 0.368 | 0.331
x1 = 0.5 | 723.6 | 714.3 | 704.8 | 0.402 | 0.363 | 0.328
x1 = 0.55 | 728.8 | 719.4 | 709.8 | 0.398 | 0.36 | 0.325
x1 = 0.6 | 734.5 | 724.9 | 715.3 | 0.394 | 0.356 | 0.322
x1 = 0.65 | 740.6 | 731 | 721.2 | 0.39 | 0.353 | 0.32
x1 = 0.7 | 747.2 | 737.4 | 727.5 | 0.387 | 0.35 | 0.317
x1 = 0.75 | 754.2 | 744.3 | 734.3 | 0.384 | 0.347 | 0.315
x1 = 0.8 | 761.9 | 751.9 | 741.7 | 0.381 | 0.345 | 0.313
x1 = 0.85 | 770.4 | 760.2 | 749.9 | 0.379 | 0.343 | 0.311
x1 = 0.9 | 779.3 | 769 | 758.6 | 0.377 | 0.342 | 0.309
x1 = 0.95 | 789.2 | 778.8 | 768.2 | 0.377 | 0.341 | 0.308
x1 = 1 | 799.7 | 789.2 | 778.4 | 0.378 | 0.341 | 0.307

CCO [ethanol] + CCC(C)=O
[1], x1 = 1
Details | mass density [kg/m3] | viscosity [mPa·s]
298.15 K | 785.1 | 1.088
308.15 K | 776.5 | 0.904
318.15 K | 767.7 | 0.763

CC(C)CC(C)(C)C [2,2,4-trimethylpentane] + CCC(C)=O
[1], x2 = 0
Details | mass density [kg/m3] | viscosity [mPa·s]
298.15 K | 687.8 | 0.474
308.15 K | 679.5 | 0.426
318.15 K | 671 | 0.382

CCO [ethanol]
[2]
Details | mass density [kg/m3] | viscosity [mPa·s]
298.15 K | 785.1 | 1.088
308.15 K | 776.5 | 0.904
318.15 K | 767.7 | 0.763

Details | refractive index
[3] | 1.35949
